According to patent publication US11566007B2, “Ras inhibitors” (Revolution Medicines, Inc., priority 2019, dated 2023):

Legend:
NRAS G12C = NRAS G12C (Homo sapiens (Human), UniProt P01111+P62937, G12C); test: Ras-Raf (BRAF RBD) disruption / FRET / MOA assay, NRAS G12C; format: biochemical; conditions: read-out: IC50* NRAS G12C FRET data
How it was run: (§1)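 Ras:RAF disruption was scored as a fall in TR-FRET ratio relative to DMSO. Compound ranged in 3-fold steps over 10 points from 30 μM final; incubation ran 3 h at 25° C, detection antibodies a further 1.5 h. Reported as IC50.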

KRAS G12S = KRAS G12S (Homo sapiens (Human), UniProt P01116+P62937, G12S); test: Ras-Raf (BRAF RBD) disruption / FRET / MOA assay, KRAS G12S; format: biochemical; conditions: Ras-Raf disruption/FRET/MOA assay; class symbols; read-out: KRAS G12S FRET data IC50
How it was run: as §1

KRAS WT = KRAS WT (Homo sapiens (Human), UniProt P01116+P62937); test: Ras-Raf (BRAF RBD) disruption / FRET / MOA assay, KRAS WT; format: biochemical; conditions: read-out: IC50* KRAS WT FRET data
How it was run: as §1

KRAS G13D = KRAS G13D (Homo sapiens (Human), UniProt P01116+P62937, G13D); test: Ras-Raf (BRAF RBD) disruption / FRET / MOA assay, KRAS G13D; format: biochemical; conditions: read-out: IC50* KRAS G13D FRET data
How it was run: as §1

NCI-H358 (K-Ras G12C) = test: CellTiter-Glo cell viability assay, NCI-H358; format: cell-based, human; conditions: Homo sapiens, NCI-H358, 120 h, NCI-H358, 5-day treatment; class symbols; read-out: Additional H358 Cell Viability assay data (K-Ras G12C, IC50)
How it was run: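 Viability measured by CellTiter-Glo luminescence on day 5 following direct addition of compound to plated cells. Values expressed as percent of mean DMSO signal; curves fitted with a four-parameter logistic model.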

K-Ras G13C = K-Ras G13C (Homo sapiens (Human), UniProt P01116+P62937, G13C); test: Ras-Raf (BRAF RBD) disruption / FRET / MOA assay, KRAS G13C; format: biochemical; conditions: KRAS G13C; Ras-Raf disruption/FRET/MOA assay; read-out: IC50* KRAS G13C FRET data
How it was run: as §1

KRAS G12V = KRAS G12V (Homo sapiens (Human), UniProt P01116+P62937, G12V); test: Ras-Raf (BRAF RBD) disruption / FRET / MOA assay, KRAS G12V; format: biochemical; conditions: read-out: IC50* KRAS G12V FRET data
How it was run: as §1

KRAS G12D = KRAS G12D (Homo sapiens (Human), UniProt P01116+P62937, G12D); test: Ras-Raf (BRAF RBD) disruption / FRET / MOA assay, KRAS G12D; format: biochemical; conditions: Ras-Raf disruption/FRET/MOA assay; class symbols; read-out: KRAS G12D FRET data IC50
How it was run: as §1

K-Ras G12C = K-Ras G12C (Homo sapiens (Human), UniProt P01116+P62937, G12C); test: Ras-Raf (BRAF RBD) disruption / FRET / MOA assay, KRAS G12C; format: biochemical; conditions: KRAS G12C; Ras-Raf disruption/FRET/MOA assay; read-out: IC50* KRAS G12C FRET data
How it was run: as §1

[1] = test system: NCI-H358 cells (K-Ras G12C); test: Potency assay: pERK in NCI-H358 cells; format: cell-based, human; conditions: Homo sapiens, NCI-H358; H358 KRAS G12C; read-out: pERK EC50
How it was run: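 4 h cpd, 37 °C; 10-pt 3-fold series, 10 mM DMSO top stock, duplicates. Readout pERK: AlphaLISA SureFire Ultra or In-Cell Western (IR-800CW secondary, DRAQ5 DNA stain). IC50, 4-PL fit vs log conc.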

Sequence of KRAS G12D (P01116-2 other isoform, or with tags, fused parts or gaps G12D): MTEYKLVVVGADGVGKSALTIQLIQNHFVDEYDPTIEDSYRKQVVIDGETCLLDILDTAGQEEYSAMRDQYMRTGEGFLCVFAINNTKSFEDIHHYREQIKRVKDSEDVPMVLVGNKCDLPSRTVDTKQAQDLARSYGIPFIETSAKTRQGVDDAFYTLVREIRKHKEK
Sequence of KRAS G12D (P62937 whole entry): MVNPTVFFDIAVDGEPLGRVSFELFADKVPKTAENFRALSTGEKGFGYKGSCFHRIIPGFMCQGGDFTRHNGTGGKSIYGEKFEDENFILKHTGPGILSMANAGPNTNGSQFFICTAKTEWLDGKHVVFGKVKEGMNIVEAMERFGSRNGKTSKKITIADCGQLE
Sequence of KRAS G12V (P01116-2 other isoform, or with tags, fused parts or gaps G12V): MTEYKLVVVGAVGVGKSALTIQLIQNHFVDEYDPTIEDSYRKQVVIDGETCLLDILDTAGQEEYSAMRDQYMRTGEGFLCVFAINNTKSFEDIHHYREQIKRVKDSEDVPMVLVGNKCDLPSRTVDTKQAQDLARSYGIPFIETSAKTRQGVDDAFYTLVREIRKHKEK
Sequence of KRAS G12V (P62937 whole entry): as the sequence (P62937 whole entry) above
Sequence of K-Ras G13C (P01116-2 other isoform, or with tags, fused parts or gaps G13C): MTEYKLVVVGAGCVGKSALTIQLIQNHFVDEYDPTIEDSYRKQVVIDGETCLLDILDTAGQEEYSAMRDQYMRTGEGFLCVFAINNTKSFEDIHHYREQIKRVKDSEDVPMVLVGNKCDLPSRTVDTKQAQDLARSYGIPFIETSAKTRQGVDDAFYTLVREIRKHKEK
Sequence of K-Ras G13C (P62937 whole entry): as the sequence (P62937 whole entry) above
Sequence of KRAS G13D (P01116-2 other isoform, or with tags, fused parts or gaps G13D): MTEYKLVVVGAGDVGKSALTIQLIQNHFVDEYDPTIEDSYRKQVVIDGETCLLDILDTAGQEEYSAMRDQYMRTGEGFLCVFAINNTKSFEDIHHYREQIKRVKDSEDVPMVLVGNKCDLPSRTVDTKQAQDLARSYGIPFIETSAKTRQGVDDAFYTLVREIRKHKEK
Sequence of KRAS G13D (P62937 whole entry): as the sequence (P62937 whole entry) above
Sequence of KRAS WT (P01116-2 other isoform, or with tags, fused parts or gaps): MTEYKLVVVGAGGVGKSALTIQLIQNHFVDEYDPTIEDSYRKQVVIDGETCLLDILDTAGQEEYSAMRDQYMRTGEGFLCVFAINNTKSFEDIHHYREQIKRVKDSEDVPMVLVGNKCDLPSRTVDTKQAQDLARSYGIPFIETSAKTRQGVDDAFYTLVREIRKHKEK
Sequence of KRAS WT (P62937 whole entry): as the sequence (P62937 whole entry) above
Sequence of K-Ras G12C (P01116-2 other isoform, or with tags, fused parts or gaps G12C): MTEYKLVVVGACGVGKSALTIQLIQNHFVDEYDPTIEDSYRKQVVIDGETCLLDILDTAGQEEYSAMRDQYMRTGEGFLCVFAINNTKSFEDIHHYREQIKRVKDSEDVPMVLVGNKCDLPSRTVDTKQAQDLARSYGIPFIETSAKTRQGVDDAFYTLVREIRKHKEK
Sequence of K-Ras G12C (P62937 whole entry): as the sequence (P62937 whole entry) above
Sequence of NRAS G12C (P01111 whole entry G12C): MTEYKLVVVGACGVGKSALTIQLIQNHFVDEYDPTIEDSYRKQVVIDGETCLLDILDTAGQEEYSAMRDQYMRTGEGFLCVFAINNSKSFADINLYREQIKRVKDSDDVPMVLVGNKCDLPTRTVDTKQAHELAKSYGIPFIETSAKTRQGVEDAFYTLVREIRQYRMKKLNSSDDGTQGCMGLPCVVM
Sequence of NRAS G12C (P62937 whole entry): as the sequence (P62937 whole entry) above
Sequence of KRAS G12S (P01116-2 other isoform, or with tags, fused parts or gaps G12S): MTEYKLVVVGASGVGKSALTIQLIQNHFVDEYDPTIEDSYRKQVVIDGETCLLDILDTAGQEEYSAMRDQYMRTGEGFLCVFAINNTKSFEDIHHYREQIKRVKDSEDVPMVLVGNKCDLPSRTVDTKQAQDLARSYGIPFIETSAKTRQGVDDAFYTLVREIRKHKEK
Sequence of KRAS G12S (P62937 whole entry): as the sequence (P62937 whole entry) above

Compound	IC50 (NRAS G12C) [µM]	IC50 (KRAS G12S) [µM]	IC50 (KRAS WT) [µM]	IC50 (KRAS G13D) [µM]	IC50 (NCI-H358 (K-Ras G12C)) [µM]	IC50 (K-Ras G13C) [µM]	IC50 (KRAS G12V) [µM]	IC50 (KRAS G12D) [µM]	IC50 (K-Ras G12C) [µM]	EC50 [1] [µM]
C=CC(=O)N1CC[C@H](C(=O)N(C)[C@H](C(=O)N[C@H]2Cc3cccc(c3)-c3ccc4c(c3)c(c(-c3cccnc3[C@H](C)OC)n4CC)CC(C)(C)COC(=O)[C@@H]3CCCN(N3)C2=O)C2CCC2)C1 (atropisomer, axis not shown) [Example A321]	0.1 to 1	1 to 10	1 to 10	1 to 10	0.01 to 0.1	1 to 10	1 to 10	> 10	0.1 to 1	< 5
CCn1c(-c2cccnc2[C@H](C)OC)c2c3cc(ccc31)-c1csc(n1)C[C@H](NC(=O)[C@H](C(C)C)N1CCC3(CCN(C(=O)C#CC(C)(C)N(C)C)CC3)C1=O)C(=O)N1CCC[C@H](N1)C(=O)OCC(C)(C)C2 (atropisomer, axis not shown) [Example A322]	0.01 to 0.1	> 10	> 10	> 10	< 0.01	0.1 to 1	> 10	> 10	< 0.01	< 5
CCn1c(-c2cccnc2[C@H](C)OC)c2c3cc(ccc31)-c1csc(n1)C[C@H](NC(=O)[C@H](C(C)C)N1CCC3(CN(C(=O)C#CC(C)(C)N(C)C)C3)C1=O)C(=O)N1CCC[C@H](N1)C(=O)OCC(C)(C)C2 (atropisomer, axis not shown) [Example A323]	< 0.01	> 10	> 10	> 10	< 0.01	0.1 to 1	> 10	> 10	< 0.01	< 5
CCn1c(-c2cccnc2[C@H](C)OC)c2c3cc(ccc31)-c1cccc(c1)C[C@H](NC(=O)[C@H](C(C)C)N1CCC3(CN(C(=O)C#CC(C)(C)N(C)C)C3)C1=O)C(=O)N1CCC[C@H](N1)C(=O)OCC(C)(C)C2 (atropisomer, axis not shown) [Example A324]	< 0.01	1 to 10	1 to 10	> 10	< 0.01	0.1 to 1	1 to 10	> 10	< 0.01	< 5
CCn1c(-c2cccnc2[C@H](C)OC)c2c3cc(ccc31)-c1cccc(c1)C[C@H](NC(=O)[C@H](C(C)C)N(C)C(=O)[C@H]1CCN(C(=O)C#CC(C)(C)N3CCCC3)C1)C(=O)N1CCC[C@H](N1)C(=O)OCC(C)(C)C2 (atropisomer, axis not shown) [Example A326]	< 0.01	1 to 10	1 to 10	1 to 10	< 0.01	1 to 10	1 to 10	1 to 10	< 0.01	< 5
C=CC(=O)N1CC[C@H](C(=O)N(C)[C@H](C(=O)N[C@H]2Cc3cccc(c3F)-c3ccc4c(c3)c(c(-c3cccnc3[C@H](C)OC)n4CC)CC(C)(C)COC(=O)[C@@H]3CCCN(N3)C2=O)C(C)C)C1 (atropisomer, axis not shown) [Example A327]	0.1 to 1	1 to 10	> 10	> 10	0.01 to 0.1	1 to 10	> 10	> 10	0.1 to 1	< 5
C=CC(=O)N1CCN(C(=O)N(C)[C@H](C(=O)N[C@H]2Cc3nc(cs3)-c3ccc4c(c3)c(c(-c3cccnc3[C@H](C)OC)n4CC)CC(C)(C)COC(=O)[C@@H]3CCCN(N3)C2=O)C(C)C)C2(CC2)C1 (atropisomer, axis not shown) [Example A395]	0.1 to 1	0.1 to 1	0.1 to 1	0.1 to 1	< 0.01	0.1 to 1	0.1 to 1	1 to 10	0.1 to 1	< 5
C=CC(=O)N1C[C@@H](F)[C@](F)(C(=O)N(C)[C@H](C(=O)N[C@H]2Cc3cccc(c3)-c3ccc4c(c3)c(c(-c3cccnc3[C@H](C)OC)n4CC)CC(C)(C)COC(=O)[C@@H]3CCCN(N3)C2=O)C(C)C)C1 (atropisomer, axis not shown) [Example A396]	0.01 to 0.1	1 to 10	1 to 10	1 to 10	< 0.01	0.01 to 0.1	1 to 10	1 to 10	0.01 to 0.1	< 5
C=CC(=O)N1C[C@H](F)[C@](F)(C(=O)N(C)[C@H](C(=O)N[C@H]2Cc3cccc(c3)-c3ccc4c(c3)c(c(-c3cccnc3[C@H](C)OC)n4CC)CC(C)(C)COC(=O)[C@@H]3CCCN(N3)C2=O)C(C)C)C1 (atropisomer, axis not shown) [Example A397]	0.01 to 0.1	0.1 to 1	0.1 to 1	0.1 to 1	< 0.01	0.01 to 0.1	0.1 to 1	1 to 10	0.01 to 0.1	< 5
C=CC(=O)N1CC[C@H](C(=O)N(CC)[C@H](C(=O)N[C@H]2Cc3cccc(c3)-c3ccc4c(c3)c(c(-c3cccnc3[C@H](C)OC)n4CC)CC(C)(C)COC(=O)[C@@H]3CCCN(N3)C2=O)C(C)C)C1 (atropisomer, axis not shown) [Example A399]	0.1 to 1	1 to 10	1 to 10	1 to 10	0.01 to 0.1	1 to 10	1 to 10	> 10	0.1 to 1	< 5
C=CC(=O)N1C[C@H](C(=O)N(C)[C@H](C(=O)N[C@H]2Cc3cccc(c3)-c3ccc4c(c3)c(c(-c3cccnc3[C@H](C)OC)n4CC)CC(C)(C)COC(=O)[C@@H]3CCCN(N3)C2=O)C(C)C)[C@H](C(F)(F)F)C1 (atropisomer, axis not shown) [Example A400]	0.01 to 0.1	> 10	> 10	> 10	0.01 to 0.1	1 to 10	> 10	> 10	0.01 to 0.1	< 5
CC#CC(=O)N1C[C@H](C)[C@H](C(=O)N(C)[C@H](C(=O)N[C@H]2Cc3cccc(c3)-c3ccc4c(c3)c(c(-c3cccnc3[C@H](C)OC)n4CC)CC(C)(C)COC(=O)[C@@H]3CCCN(N3)C2=O)C2CCCC2)C1 (atropisomer, axis not shown) [Example A402]	0.1 to 1	1 to 10	1 to 10	> 10	0.01 to 0.1	1 to 10	1 to 10	> 10	0.1 to 1	< 5
C=CC(=O)N1C[C@@H](C)N(C(=O)N(C)[C@H](C(=O)N[C@H]2Cc3nc(cs3)-c3ccc4c(c3)c(c(-c3cccnc3[C@H](C)OC)n4CC)CC(C)(C)COC(=O)[C@@H]3CCCN(N3)C2=O)C(C)C)C[C@H]1C (atropisomer, axis not shown) [Example A406]	0.1 to 1	0.1 to 1	0.1 to 1	0.1 to 1	0.01 to 0.1	0.1 to 1	0.1 to 1	1 to 10	0.1 to 1	< 5
C=CC(=O)N1C[C@@H]2C[C@H]1CN2C(=O)N(C)[C@H](C(=O)N[C@H]1Cc2nc(cs2)-c2ccc3c(c2)c(c(-c2cccnc2[C@H](C)OC)n3CC)CC(C)(C)COC(=O)[C@@H]2CCCN(N2)C1=O)C(C)C (atropisomer, axis not shown) [Example A409]	0.1 to 1	0.1 to 1	0.1 to 1	1 to 10	0.01 to 0.1	0.1 to 1	0.1 to 1	0.1 to 1	0.1 to 1	< 5
CCn1c(-c2cccnc2[C@H](C)OC)c2c3cc(ccc31)-c1csc(n1)C[C@H](NC(=O)[C@H](C(C)C)N1CC[C@]3(CCN(C(=O)C#CC(C)(C)N(C)C)C3)C1=O)C(=O)N1CCC[C@H](N1)C(=O)OCC(C)(C)C2 (atropisomer, axis not shown) [Example A411]	< 0.01	1 to 10	1 to 10	1 to 10	< 0.01	0.1 to 1	1 to 10	1 to 10	< 0.01	< 5
